Data on 1 molecule can be found in patent US20080058709A1, “METHOD AND APPARATUS THAT ASSOCIATE THE PARENTERAL INJECTION OF MEDICAL GRADE CARBON DIOXIDE (CO2) CONCOMITANTLY WITH THE APPLICATION OF INFRARED RADIATION FROM THERMAL AND/OR LIGHT SOURCES USING CONTROL BY MEANS OF CUTANEOUS AND/OR BODY THERMOMETRY” (priority 2006, published 2008).

“Also recorded” adds a separate entry of the source.

The test system of series [1] is patients that had arterial circulatory disease with intermittent claudication. The following applies: transcutaneous, bathing in waters rich in CO2; cited from earlier work.
Series [2] deals with bone tissues and related connective tissues. Briefly: application of the invention in direct therapies on bone and related connective tissues. The series is classed as in vivo, human. The following applies: CO2 infusion combined with infrared radiation controlled by thermometry. An excerpt: (§1) Along these lines, the applicant has conjectured several clinical applications for using the method and controlled apparatuses of carbon dioxide infusion (A1) combined with the emission of infrared radiation (4) controlled by cutaneous/body thermometry (5) in an interface apparatus (A2) in vascular diseases, painful syndromes, lo treatment of osteoarticular tissues, and induction of focal reactive oxygen therapy. Following tests and observations, the applicant obtained the following results with the application of the present invention: […]

The test system of the next series is patients. Briefly: infrared radiation applied concomitantly with parenteral CO2 injection: pain during gas infusion. The format is in vivo, human. As for the experimental part:
The intensity of radiation, however, could cause skin lesions; thus, during the infusions, he started to use as a safety parameter the assessment of skin temperature on the sites were irradiation was applied.
(§2) a.1) Following antisepsis and placement of limiting devices (G) (tourniquets), initiate the application of 02 to 03 minutes of infrared radiation in the area to be treated with thermal or light infrared radiation emitters (4), prior to initiating the injection of the CO2 gas (2);
c.1) Monitoring with the infrared emitting source (4) the treated areas (AT) that are receiving the injection of CO2 gas (2), throughout the procedure; in the areas with skin lesions of ischemic etiology, more caution should be exercised when using this radiation.

The next series concerns acupuncture points. As to the kind of experiment: application of the invention in acupuncture (carboxyacupuncture). The series is classed as in vivo, human. As to conditions: CO2 infusion combined with infrared radiation controlled by thermometry.
Text: Technical variants in the mode of application of the product have also been developed by the proponent, such as: the use of limiting devices or tourniquets (G) at several points of the lower limbs in order to limit the expansion of the gas; distribution and homogenization of the CO2 in areas of interest by means of manual massages with oils, creams, or ointments; as well as the development of specific injection techniques into alternative parenteral routes (intramuscular, subfascial, intrasynovial, and other), as well as new methodologies of injection of the gas (carboxyacupuncture, sclerocarboxytherapy, and carboembolotherapy), all representing methods to optimize the effects and the use of the proposed apparatus (1).
as §1

The test system of series [3] is Vascular Disease—Miscellaneous. Briefly: application of the invention in vascular disease, miscellaneous (healing, grafts, flaps). The series is classed as in vivo, human. As to conditions: CO2 infusion combined with infrared radiation controlled by thermometry.
Text: The present developed method includes two main stages:
Stage I) Application of the medical grade carbon dioxide—CO2—in vascular diseases and painful syndromes consists of the following stages:
d) Injections of the gas (2) via the parenteral route (3), standardized by the type of vasculopathy, painful syndrome, or induction of focal reactive oxygen therapy, adjusted by the type of treatment, and automatically controlled by the interfaces of the apparatus (A2);
Stage II) Application of infrared radiation consists of the following stages:
as §2, §1

Series [4] relates to patients allergic to iodine contrast media. As to conditions: intra-arterial injections, even at large volumes; cited from earlier work.
The test system of series [5] is patients with vascular and painful morbidities. As to the kind of experiment: subcutaneous and intradermal CO2 injections in patients with vascular and painful morbidities (clinical observation). The series is classed as in vivo, human. The text has this:
It was perceived that the beneficial therapeutic effects in the areas of diffusion of CO2 after its injection subcutaneously and intradermally explored the initial “aesthetic” objectives.

Turning to `O=C=O` [CO2, carbon dioxide], the walking distance entry in series [1] is listed as “improving the walking distance”. Further, in series [2], the “results in direct therapies on bone tissues and related connective tissues” value was “Facilitates intraoperatory dissection of tendinous sheaths; also recorded: Minimizes post tenolysis adhesions”. Also, the “analgesia during the infusion of the gas” value in the series on patients is on record as “produced an important analgesia”. For the same molecule, in the series with acupuncture points, the “results in Acupuncture (Carboxyacupuncture)” value is “Greater local effect at systemic and cranial acupuncture points; also recorded: Greater action spectrum on less sensitive meridians; also recorded: Greater longevity of treatment”. In series [3], the “results in Vascular Disease—Miscellaneous” value is on record as “Accelerates the cicatricial process in lesions difficult to heal; also recorded: Accelerates the cicatricial process in areas of circulatory deficit; also recorded: Augments donor areas of free skin grafts; also recorded: Circulatory improvement in advancement or myocutaneous flaps”. The adverse reactions result in series [4] was “no significant adverse reactions even at large volumes”. For the same molecule, the “vascular and painful symptoms following injections of the gas” value in series [5] (CO2 injected subcutaneously and intradermally, patients treated for aesthetics) is “showed improvement of vascular and painful symptoms”. The “therapeutic effects after moving injection sites closer to the painful morbidities and the circulatory system” value in series [5] (modified sites and forms of parenteral injection of CO2) is listed as “clear intensification of the initially observed therapeutic effects”.
